Test results reported in the kinase profiling compilation of Christmann-Franck et al. (2016).

What was measured:
Assay in all cases: radiometric filter-binding kinase assay, Kinase HotSpot
Conditions in all cases: compound 0.5 µM; ATP 10 µM
ALK (human) = ALK (human) (UniProt Q9UM73)
AURKB (human) = AURKB (human) (UniProt Q96GD4)
AXL (human) = AXL (human) (UniProt P30530)
BRAF (human) = BRAF (human) (UniProt P15056)
CAMK2A (human) = CAMK2A (human) (UniProt Q9UQM7)
CDC42BPB (human) = CDC42BPB (human) (UniProt Q9Y5S2)
CDK7 CCNH MNAT1 (human) = CDK7 CCNH MNAT1 (human) (UniProt P50613+P51948+P51946)
CDK9 CCNK (human) = CDK9 CCNK (human) (UniProt O75909+P50750)
CLK1 (human) = CLK1 (human) (UniProt P49759)
CLK4 (human) = CLK4 (human) (UniProt Q9HAZ1)
DSTYK (human) = DSTYK (human) (UniProt Q6XUX3)
DYRK2 (human) = DYRK2 (human) (UniProt Q92630)
EGFR (human) = EGFR (human) (UniProt P00533)
EPHA4 (human) = EPHA4 (human) (UniProt P54764)
Chain of EPHA4 (human) (P54764 whole entry, looked up): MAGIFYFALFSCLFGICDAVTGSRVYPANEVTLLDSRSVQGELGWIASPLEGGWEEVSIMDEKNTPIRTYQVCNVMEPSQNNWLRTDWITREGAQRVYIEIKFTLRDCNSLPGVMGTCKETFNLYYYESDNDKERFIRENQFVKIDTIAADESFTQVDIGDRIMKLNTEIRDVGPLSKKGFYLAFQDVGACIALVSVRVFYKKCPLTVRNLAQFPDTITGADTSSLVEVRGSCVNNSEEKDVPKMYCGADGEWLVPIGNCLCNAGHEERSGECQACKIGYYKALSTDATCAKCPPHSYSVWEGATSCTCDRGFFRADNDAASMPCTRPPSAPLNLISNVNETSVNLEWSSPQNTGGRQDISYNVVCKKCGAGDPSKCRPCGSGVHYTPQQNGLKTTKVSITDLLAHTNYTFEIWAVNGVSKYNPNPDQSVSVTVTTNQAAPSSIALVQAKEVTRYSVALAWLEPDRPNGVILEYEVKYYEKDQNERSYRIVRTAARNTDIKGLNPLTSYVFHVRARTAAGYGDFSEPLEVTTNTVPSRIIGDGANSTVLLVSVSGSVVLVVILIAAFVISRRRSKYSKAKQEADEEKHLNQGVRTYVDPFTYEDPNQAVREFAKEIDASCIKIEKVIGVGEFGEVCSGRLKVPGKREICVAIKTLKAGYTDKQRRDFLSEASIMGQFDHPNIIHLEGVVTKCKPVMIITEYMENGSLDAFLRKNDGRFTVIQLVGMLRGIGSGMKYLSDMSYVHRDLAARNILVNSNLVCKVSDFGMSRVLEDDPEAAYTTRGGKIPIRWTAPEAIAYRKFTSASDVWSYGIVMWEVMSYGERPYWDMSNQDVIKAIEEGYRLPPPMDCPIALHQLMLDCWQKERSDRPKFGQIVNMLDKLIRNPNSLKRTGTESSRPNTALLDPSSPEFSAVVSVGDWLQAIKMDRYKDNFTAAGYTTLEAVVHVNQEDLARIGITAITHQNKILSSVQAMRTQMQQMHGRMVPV

GSK3A (human) = GSK3A (human) (UniProt P49840)
IGF1R (human) = IGF1R (human) (UniProt P08069)
LCK (human) = LCK (human) (UniProt P06239)
MAPK3 (human) = MAPK3 (human) (UniProt P27361)
MELK (human) = MELK (human) (UniProt Q14680)
MET (human) = MET (human) (UniProt P08581)
MST1R (human) = MST1R (human) (UniProt Q04912)
NTRK2 (human) = NTRK2 (human) (UniProt Q16620)
Chain of NTRK2 (human) (Q16620 whole entry, looked up): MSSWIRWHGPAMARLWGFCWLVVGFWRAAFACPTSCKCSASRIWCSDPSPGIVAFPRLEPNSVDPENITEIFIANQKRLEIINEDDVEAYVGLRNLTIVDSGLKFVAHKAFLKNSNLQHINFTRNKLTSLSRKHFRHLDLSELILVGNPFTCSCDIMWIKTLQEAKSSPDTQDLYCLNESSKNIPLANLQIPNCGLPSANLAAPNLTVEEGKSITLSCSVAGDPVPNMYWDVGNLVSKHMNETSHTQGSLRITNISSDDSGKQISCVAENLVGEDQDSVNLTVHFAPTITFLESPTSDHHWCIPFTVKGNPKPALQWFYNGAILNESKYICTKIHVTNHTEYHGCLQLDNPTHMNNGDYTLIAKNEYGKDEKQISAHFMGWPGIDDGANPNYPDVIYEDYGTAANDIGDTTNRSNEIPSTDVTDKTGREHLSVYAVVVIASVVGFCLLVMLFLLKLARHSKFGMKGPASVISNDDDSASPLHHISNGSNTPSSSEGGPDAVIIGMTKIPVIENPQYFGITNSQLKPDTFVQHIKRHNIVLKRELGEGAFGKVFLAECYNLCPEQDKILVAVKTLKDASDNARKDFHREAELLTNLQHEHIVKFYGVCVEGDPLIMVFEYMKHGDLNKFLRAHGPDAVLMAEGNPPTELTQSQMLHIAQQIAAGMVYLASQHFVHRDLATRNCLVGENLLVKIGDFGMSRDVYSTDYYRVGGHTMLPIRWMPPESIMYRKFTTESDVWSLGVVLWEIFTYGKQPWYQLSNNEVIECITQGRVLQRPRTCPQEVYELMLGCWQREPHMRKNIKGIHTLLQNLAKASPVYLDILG

PAK1 (human) = PAK1 (human) (UniProt Q13153)
PAK7 (human) = PAK7 (human) (UniProt Q9P286)
PASK (human) = PASK (human) (UniProt Q96RG2)
PIM2 (human) = PIM2 (human) (UniProt Q9P1W9)
Chain of PIM2 (human) (Q9P1W9 whole entry, looked up): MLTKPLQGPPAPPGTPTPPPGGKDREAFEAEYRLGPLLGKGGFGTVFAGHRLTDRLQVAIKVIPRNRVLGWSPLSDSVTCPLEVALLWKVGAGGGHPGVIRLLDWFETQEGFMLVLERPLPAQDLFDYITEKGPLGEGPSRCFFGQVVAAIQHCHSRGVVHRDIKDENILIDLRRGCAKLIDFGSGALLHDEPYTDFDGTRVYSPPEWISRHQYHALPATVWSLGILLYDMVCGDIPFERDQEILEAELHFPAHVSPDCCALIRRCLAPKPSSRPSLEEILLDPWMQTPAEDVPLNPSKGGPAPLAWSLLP

PIM3 (human) = PIM3 (human) (UniProt Q86V86)
PRKACA (human) = PRKACA (human) (UniProt P17612)
RPS6KB1 (human) = RPS6KB1 (human) (UniProt P23443)
SLK (human) = SLK (human) (UniProt Q9H2G2)
Chain of SLK (human) (Q9H2G2 whole entry, looked up): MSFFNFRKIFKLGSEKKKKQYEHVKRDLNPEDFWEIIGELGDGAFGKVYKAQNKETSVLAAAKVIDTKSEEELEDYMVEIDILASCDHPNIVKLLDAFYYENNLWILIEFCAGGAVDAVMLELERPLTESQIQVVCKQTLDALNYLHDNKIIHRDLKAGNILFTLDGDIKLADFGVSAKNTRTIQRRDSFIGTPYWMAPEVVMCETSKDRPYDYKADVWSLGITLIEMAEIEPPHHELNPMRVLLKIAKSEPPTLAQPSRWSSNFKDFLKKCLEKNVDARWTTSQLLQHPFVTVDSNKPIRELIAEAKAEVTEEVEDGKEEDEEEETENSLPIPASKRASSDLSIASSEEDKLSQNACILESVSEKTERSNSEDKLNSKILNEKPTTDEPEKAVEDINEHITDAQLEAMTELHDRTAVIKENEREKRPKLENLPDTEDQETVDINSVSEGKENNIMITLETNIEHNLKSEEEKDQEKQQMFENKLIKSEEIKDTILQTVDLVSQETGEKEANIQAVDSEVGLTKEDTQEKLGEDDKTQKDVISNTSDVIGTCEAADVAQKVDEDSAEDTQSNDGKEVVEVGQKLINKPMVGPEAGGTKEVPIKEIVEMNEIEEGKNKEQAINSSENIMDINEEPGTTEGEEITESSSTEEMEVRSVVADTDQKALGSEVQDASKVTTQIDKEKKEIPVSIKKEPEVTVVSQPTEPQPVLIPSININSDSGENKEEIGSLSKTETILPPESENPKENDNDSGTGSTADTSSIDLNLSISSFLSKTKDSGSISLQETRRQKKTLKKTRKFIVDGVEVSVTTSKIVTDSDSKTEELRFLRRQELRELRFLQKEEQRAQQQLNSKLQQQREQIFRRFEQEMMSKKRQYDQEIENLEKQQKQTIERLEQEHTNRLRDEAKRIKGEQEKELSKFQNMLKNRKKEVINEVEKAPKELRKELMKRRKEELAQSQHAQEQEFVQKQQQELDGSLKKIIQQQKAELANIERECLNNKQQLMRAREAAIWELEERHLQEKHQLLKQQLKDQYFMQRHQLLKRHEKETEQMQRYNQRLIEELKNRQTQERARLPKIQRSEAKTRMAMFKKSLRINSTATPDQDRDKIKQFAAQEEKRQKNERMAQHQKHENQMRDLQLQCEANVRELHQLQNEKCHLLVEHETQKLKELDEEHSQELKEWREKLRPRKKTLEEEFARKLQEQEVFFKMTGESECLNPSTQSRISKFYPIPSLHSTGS

STK16 (human) = STK16 (human) (UniProt O75716)
Chain of STK16 (human) (O75716 whole entry, looked up): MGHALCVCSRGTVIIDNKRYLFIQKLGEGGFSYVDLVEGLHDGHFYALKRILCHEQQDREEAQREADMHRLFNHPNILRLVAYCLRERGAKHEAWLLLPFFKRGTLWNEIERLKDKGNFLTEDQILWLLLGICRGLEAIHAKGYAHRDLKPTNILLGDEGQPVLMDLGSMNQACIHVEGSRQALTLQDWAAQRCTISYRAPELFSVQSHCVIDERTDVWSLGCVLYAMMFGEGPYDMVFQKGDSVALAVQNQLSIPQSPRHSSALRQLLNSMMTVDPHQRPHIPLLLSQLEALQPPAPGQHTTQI

STK33 (human) = STK33 (human) (UniProt Q9BYT3)
Chain of STK33 (human) (Q9BYT3 whole entry, looked up): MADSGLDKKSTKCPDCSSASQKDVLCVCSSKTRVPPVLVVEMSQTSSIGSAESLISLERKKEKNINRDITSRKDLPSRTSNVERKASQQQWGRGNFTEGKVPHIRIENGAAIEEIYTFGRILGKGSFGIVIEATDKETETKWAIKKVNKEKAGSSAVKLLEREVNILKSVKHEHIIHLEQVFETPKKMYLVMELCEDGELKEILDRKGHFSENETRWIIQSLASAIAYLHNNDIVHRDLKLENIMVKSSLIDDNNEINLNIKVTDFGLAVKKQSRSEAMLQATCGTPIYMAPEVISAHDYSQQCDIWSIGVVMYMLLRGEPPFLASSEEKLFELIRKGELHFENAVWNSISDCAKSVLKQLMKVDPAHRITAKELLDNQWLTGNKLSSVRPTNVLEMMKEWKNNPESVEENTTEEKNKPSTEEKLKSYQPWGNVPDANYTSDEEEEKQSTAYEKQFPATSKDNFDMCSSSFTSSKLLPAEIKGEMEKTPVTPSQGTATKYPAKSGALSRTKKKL

TGFBR2 (human) = TGFBR2 (human) (UniProt P37173)
WNK2 (human) = WNK2 (human) (UniProt Q9Y3S1)
EPHA6 (human) = EPHA6 (human) (UniProt Q9UF33)
MYO3B (human) = MYO3B (human) (UniProt Q8WXR4)
PRKACG (human) = PRKACG (human) (UniProt P22612)
STK38 (human) = STK38 (human) (UniProt Q15208)
TLK2 (human) = TLK2 (human) (UniProt Q86UE8)
ULK3 (human) = ULK3 (human) (UniProt Q6PHR2)

Chain of AXL (human) (P30530 whole entry, looked up): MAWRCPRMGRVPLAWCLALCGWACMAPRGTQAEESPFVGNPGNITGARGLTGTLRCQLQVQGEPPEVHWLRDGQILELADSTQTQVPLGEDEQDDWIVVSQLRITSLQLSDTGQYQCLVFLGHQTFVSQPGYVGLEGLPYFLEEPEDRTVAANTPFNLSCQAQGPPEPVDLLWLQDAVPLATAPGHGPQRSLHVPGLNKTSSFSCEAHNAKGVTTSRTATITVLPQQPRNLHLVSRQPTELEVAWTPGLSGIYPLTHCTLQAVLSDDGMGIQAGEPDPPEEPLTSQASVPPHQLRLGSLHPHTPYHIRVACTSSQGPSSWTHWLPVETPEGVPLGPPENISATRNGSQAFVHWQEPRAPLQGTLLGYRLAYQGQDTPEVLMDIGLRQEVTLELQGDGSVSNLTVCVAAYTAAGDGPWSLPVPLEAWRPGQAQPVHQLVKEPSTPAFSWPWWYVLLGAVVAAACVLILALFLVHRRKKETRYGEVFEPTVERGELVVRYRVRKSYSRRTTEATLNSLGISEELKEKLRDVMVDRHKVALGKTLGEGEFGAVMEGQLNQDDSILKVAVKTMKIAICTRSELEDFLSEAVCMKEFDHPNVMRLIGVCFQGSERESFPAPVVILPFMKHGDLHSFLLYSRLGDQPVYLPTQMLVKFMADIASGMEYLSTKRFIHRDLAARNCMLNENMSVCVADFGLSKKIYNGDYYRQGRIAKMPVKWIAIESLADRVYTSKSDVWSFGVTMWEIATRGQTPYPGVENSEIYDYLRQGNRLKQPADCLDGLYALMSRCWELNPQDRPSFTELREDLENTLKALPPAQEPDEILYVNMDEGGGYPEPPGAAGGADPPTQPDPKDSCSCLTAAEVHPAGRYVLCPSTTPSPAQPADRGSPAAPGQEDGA

Compound	residual activity (ALK (human))	residual activity (AURKB (human))	residual activity (AXL (human))	residual activity (CAMK2A (human))	residual activity (CDC42BPB (human))	residual activity (CDK7 CCNH MNAT1 (human))	residual activity (CDK9 CCNK (human))	residual activity (CLK1 (human))	residual activity (CLK4 (human))	residual activity (DSTYK (human))	residual activity (DYRK2 (human))	residual activity (EGFR (human))	residual activity (EPHA4 (human))	residual activity (GSK3A (human))	residual activity (IGF1R (human))	residual activity (LCK (human))	residual activity (MAPK3 (human))	residual activity (MET (human))	residual activity (MST1R (human))	residual activity (NTRK2 (human))	further results
O=C1Nc2ccccc2/C1=C1\Nc2ccccc2\C1=N/O	76.5%	49.6%	82.3%	50.2%	99.5%	89.9%	59.7%	90.9%	59.2%	108%	79.1%	97.1%	89.4%	16.5%	80.2%	77.1%	90.4%	110%	103%	4.08%	residual activity (BRAF (human)): 105%; residual activity (MELK (human)): 33.3%; residual activity (PAK1 (human)): 86.1%; residual activity (PAK7 (human)): 89.3%; residual activity (PASK (human)): 94.1%; residual activity (PIM2 (human)): 106%; residual activity (PIM3 (human)): 73.6%; residual activity (PRKACA (human)): 107%; residual activity (RPS6KB1 (human)): 75.9%; residual activity (SLK (human)): 78.7%; residual activity (STK16 (human)): 54.8%; residual activity (STK33 (human)): 44.1%; residual activity (TGFBR2 (human)): 113%; residual activity (WNK2 (human)): 99.8%
O=C(Nc1cccc(Nc2cc(Nc3cccc(C(F)(F)F)c3)ncn2)c1)C1CC1	112%	98.9%	98.7%	104%	97.4%	97.6%	102%	107%	97.3%	102%	99.9%	5.82%	96.5%	101%	105%	100%	101%	103%	107%	100%	residual activity (BRAF (human)): 96.8%; residual activity (MELK (human)): 104%; residual activity (PAK1 (human)): 96.6%; residual activity (PAK7 (human)): 97.5%; residual activity (PASK (human)): 98.3%; residual activity (PIM2 (human)): 104%; residual activity (PIM3 (human)): 133%; residual activity (PRKACA (human)): 102%; residual activity (RPS6KB1 (human)): 98%; residual activity (SLK (human)): 102%; residual activity (STK16 (human)): 107%; residual activity (STK33 (human)): 105%; residual activity (TGFBR2 (human)): 105%; residual activity (WNK2 (human)): 109%
COc1ccc(OC)c2c(=S)c3ccccc3[nH]c12	105%	89.6%	103%	100%	106%	91.7%	92.2%	98.4%	104%	91.3%	96.8%	91%	88.8%	104%	97.2%	94.7%	103%	99.2%	87.9%	94%	residual activity (BRAF (human)): 88.5%; residual activity (MELK (human)): 96.6%; residual activity (PAK1 (human)): 89.2%; residual activity (PAK7 (human)): 82.9%; residual activity (PASK (human)): 90.1%; residual activity (PIM2 (human)): 103%; residual activity (PIM3 (human)): 93.1%; residual activity (PRKACA (human)): 97.5%; residual activity (RPS6KB1 (human)): 99.4%; residual activity (SLK (human)): 80.2%; residual activity (STK16 (human)): 90%; residual activity (STK33 (human)): 98.4%; residual activity (TGFBR2 (human)): 109%; residual activity (WNK2 (human)): 89.8%
CCN(CC)CCCCN1c2ccccc2Oc2ccc(Cl)cc21	106%	94.1%	95.2%	104%	99.7%	99%	105%	110%	97%	106%	101%	99.2%	91.9%	108%	89.4%	94.6%	111%	105%	112%	102%	residual activity (BRAF (human)): 98.8%; residual activity (MELK (human)): 95.3%; residual activity (PAK1 (human)): 87.7%; residual activity (PAK7 (human)): 116%; residual activity (PASK (human)): 76.6%; residual activity (PIM2 (human)): 109%; residual activity (PIM3 (human)): 37.8%; residual activity (PRKACA (human)): 98.4%; residual activity (RPS6KB1 (human)): 97.7%; residual activity (SLK (human)): 105%; residual activity (STK16 (human)): 95.2%; residual activity (STK33 (human)): 89.9%; residual activity (TGFBR2 (human)): 96%; residual activity (WNK2 (human)): 119%
CN([C@@H](Cc1ccc(OS(=O)(=O)c2cccc3cnccc23)cc1)C(=O)N1CCN(c2ccccc2)CC1)S(=O)(=O)c1cccc2cnccc12	96.5%	104%	103%	107%	103%	99.4%	89.4%	97.3%	97.2%	97.4%	97.7%	89.4%	95.4%	99.8%	105%	97.5%	90.6%	114%	94.4%	103%	residual activity (EPHA6 (human)): 94.9%; residual activity (MYO3B (human)): 88.5%; residual activity (PAK1 (human)): 95.7%; residual activity (PAK7 (human)): 103%; residual activity (PASK (human)): 103%; residual activity (PIM2 (human)): 98.5%; residual activity (PIM3 (human)): 113%; residual activity (PRKACG (human)): 107%; residual activity (RPS6KB1 (human)): 101%; residual activity (SLK (human)): 101%; residual activity (STK16 (human)): 104%; residual activity (STK33 (human)): 97.3%; residual activity (STK38 (human)): 97.2%; residual activity (TGFBR2 (human)): 101%; residual activity (TLK2 (human)): 100%; residual activity (ULK3 (human)): 98.6%; residual activity (WNK2 (human)): 100%
Nc1nnc2[nH]c3ccccc3nc1-2	96.7%	101%	91.3%	99.5%	100%	98%	88.3%	99.2%	86.9%	96%	91.6%	96.4%	86.5%	91.6%	97.5%	93.6%	113%	90.1%	105%	96.4%	residual activity (BRAF (human)): 102%; residual activity (MELK (human)): 92.9%; residual activity (PAK1 (human)): 97.1%; residual activity (PAK7 (human)): 98.4%; residual activity (PASK (human)): 93.7%; residual activity (PIM2 (human)): 105%; residual activity (PIM3 (human)): 94%; residual activity (PRKACA (human)): 102%; residual activity (RPS6KB1 (human)): 99.8%; residual activity (SLK (human)): 92.5%; residual activity (STK16 (human)): 91.9%; residual activity (STK33 (human)): 98.7%; residual activity (TGFBR2 (human)): 82.4%; residual activity (WNK2 (human)): 95.9%
